Test: toxicity monitoring in CT-26 BALB/c mice: body weight, serum chemistry, complete blood count
Type: in vivo, mouse
Procedure: In vivo studies. The experimental in vivo protocol (Protocol #19-01-003) was approved by the Institutional Animal Care and Use Committee of Brown University (Providence, RI, USA). Six-week to seven-week-old female BALB/c mice (RRID: IMSR_JAX:000651) were purchased from Taconic. A total of 50,000 cells were suspended in 50 μL ice-cold PBS and 50 μL Matrigel (Catalog #354234, Corning, New York, NY, USA), and 100 μL was injected subcutaneously into the rear flanks. Once tumor volume reached at least 100 mm^3, mice were randomly assigned to one of seven groups (12 mice/group): Control (isotype), elraglusib, elraglusib+Isotype, anti-PD-1, anti-PD-L1, elraglusib+anti-PD-1, and elraglusib+anti-PD-L1. All treatments were delivered by IP injection using the following dosing schedule: Isotype (70 mg/kg, twice a week), elraglusib (70 mg/kg, twice a week), anti-PD-1 (10 mg/kg, twice a week), anti-PD-L1 (10 mg/kg, twice a week). Treatment dosing was determined based on previous studies of elraglusib and anti-PD-1/anti-PD-L1. Ugolkov et al., Anticancer Drugs, 29, 717-724 (2018); McClanahan et al., Blood, 126, 203-211 (2015); Bernardo et al., Oncoimmunology, 10, 1881268 (2021). The solvent for elraglusib was DMSO and the formulation buffer for elraglusib was made using 75% PEG400, 7% Tween 80, and 18% Ethanol. The treatment continued until mice developed signs of discomfort from excessive tumor growth. Mice were weighed once a week to monitor signs of drug toxicity. The length (L) and width (W) of the masses were measured three times per week with a digital caliper, and the tumor volume was calculated by applying the formula: 0.5LW2 Collection of whole blood and serum was performed by cardiac puncture and sent to Antech Diagnostics GLP (Morrisville, NC, USA) for blood cell count and chemistry tests, or in-house cytokine profiling. Tumors and organs were dissected and harvested for analysis by immunohistochemistry and flow cytometry.
The inventors evaluated the potential for elraglusib to increase the efficacy of immune checkpoint blockade and utilized a syngeneic murine colon carcinoma BALB/c murine model using a MSS cell line CT-26 (FIG. 4A). Mice were randomly assigned to one of seven groups: isotype (N=12), elraglusib (N=12), elraglusib+isotype (N=12), anti-PD-1 (N=12), anti-PD-L1 (N=12), elraglusib+anti-PD-1 (N=12), and elraglusib+ anti-PD-L1 (N=12). […] The inventors saw the most sustained response in the elraglusib and anti-PD-L1 combination therapy group.
TABLE 13 description. […] Whole blood from long-term mice sacrificed was submitted for serum chemistry analysis. Results are shown from the complete metabolic panel and complete blood count with differential. ALB: Albumin, ALP: Alkaline Phosphatase, ALT: Alanine aminotransferase, AMY: Amylase, ANIS: Anisocytosis, AST: Aspartate aminotransferase, ATYP: Atypical Lymphs, BAS: Absolute Basophils, BAS%: % Basophils, BUN: Urea Nitrogen, CA: Calcium, CHOL: Cholesterol, CL: Chloride, CPK: Creatine kinase, CPLT: Clumped Platelets, CREA: Creatinine, DBIL: Direct Bilirubin, EOS: Absolute Eosinophils, EOS% : % Eosinophils, GGT: Gamma-glutamyl Transferase, GLU: Glucose, HB: Hemoglobin, HCT: Hematocrit, HJB: Howell-Jolly Bodies, HYPO: Hypochromasia, HYPR: Hyperchromasia, K: Potassium, LDH: Lactate Dehydrogenase, LIP: Lipase, LPLT: Large Platelets, LUC: Absolute Large Unstained Cells, LUC%: % Large Unstained Cells, LYM: Absolute Lymphocytes, LYM%: % Lymphocytes, MAC: Macrocytosis, MCH: Mean Corpuscular Hemoglobin, MCHC: Mean Corpuscular Hemoglobin […], MCV: Mean Corpuscular Volume, MG: Magnesium, MIC: Microcytosis, MON: Absolute Monocytes, MON%: % Monocytes, NA: Sodium, NEU: Absolute Neutrophils, NEU%: % Neutrophils, PHOS: Inorganic Phosphorus, PLT: Platelet Count, POLK: Poikilocytosis, RBC: Red Blood Cell Count, TBIL: Total Bilirubin, TPRO: Total Protein, TRIG: Triglyceride, WBC: White Blood Cell Count.

SMILES: Cn1cc(C2=C(c3coc4ccc(F)cc34)C(=O)NC2=O)c2cc3c(cc21)OCO3 [elraglusib]
- ALB (Albumin) (long-term mice sacrificed): 2.7 g/dL
- ALP (Alkaline Phosphatase) (long-term mice sacrificed): 4 U/L
- ALT (Alanine aminotransferase) (long-term mice sacrificed): 26 U/L
- AMY (Amylase) (long-term mice sacrificed): 275 U/L
- AST (Aspartate aminotransferase) (long-term mice sacrificed): 198 U/L
- BUN (Urea Nitrogen) (long-term mice sacrificed): 27 mg/dL
- CHOL (Cholesterol) (long-term mice sacrificed): 101 mg/dL
- CL (Chloride) (long-term mice sacrificed): 111 mmol/L
- CPK (Creatine kinase) (long-term mice sacrificed): 1968 U/L
- CREA (Creatinine) (long-term mice sacrificed): 0.2 mg/dL
- DBIL (Direct Bilirubin) (long-term mice sacrificed): 0 mg/dL
- GGT (Gamma-glutamyl Transferase) (long-term mice sacrificed): 0 U/L
- GLU (Glucose) (long-term mice sacrificed): 230 mg/dL
- K (Potassium) (long-term mice sacrificed): >10.0 mmol/L
- LDH (Lactate Dehydrogenase) (long-term mice sacrificed): 2230 U/L
- LIP (Lipase) (long-term mice sacrificed): 59 U/L
- MG (Magnesium) (long-term mice sacrificed): 1.2 mg/dL
- NA (Sodium) (long-term mice sacrificed): 146 mmol/L
- PHOS (Inorganic Phosphorus) (long-term mice sacrificed): 8.2 mg/dL
- TBIL (Total Bilirubin) (long-term mice sacrificed): 0.5 mg/dL
- TPRO (Total Protein) (long-term mice sacrificed): 4.5 g/dL
- TRIG (Triglyceride) (long-term mice sacrificed): 136 mg/dL
- renal function (BUN and creatinine) (mouse, in vivo): maintained normal renal function

— patent US20240041830A1, “CIRCULATING BIOMARKERS OF RESPONSE TO PD-1/PD-L1 BLOCKADE AND GSK-3 INHIBITION” (Brown University, priority 2022, published 2024)
